These results are taken from patent US10246442B2, “4-Aminoquinazolin compounds as prolyl hydroxylase inhibitors” (JANSSEN PHARMACEUTICA NV, priority 2011, dated 2019).

One assay relates to HIF1-α, Hela cells. The assay can be described thus: Cellular assay for HIF1-α in Hela cells. To be noted: Homo sapiens, 100 μM compound, 6 hours, percent of HIF stimulation relative to assay control compound 7-[(4-Chloro-phenyl)-(5-methyl-isoxazol-3-ylamino)-methyl]-quinolin-8-ol. In kind it is cell-based. The procedure: Cellular Assay for HIF1-α
Hela cells (ATCC, Manassas, Va.) were plated in 96-well plates at 20,000 cells per well in 100 μl of DMEM containing 10% fetal bovine serum, 1% non-essential amino acids, 50 IU/mL of penicillin and 50 μg/mL of streptomycin (all cell culture reagents from Invitrogen, Carlsbad, Calif.). 24 hours after plating, changed media to 100 ul of DMEM without 10% fetal bovine serum, 1.1 μl of the stock solution for each compound was added and incubated for 6 hours. All compounds were tested with a final compound concentration of 100 μM. The supernatant was removed and the cells were lysed in 55 μl of MSD lysis buffer containing protease inhibitors. 50 μl of the cell lysate was then transferred to a blocked MSD human HIF-1α detection plate (Meso-Scale Discovery, Gaithersburg, Md., as per manufacturers protocol), and incubated at room temperature on an orbital shaker for 2 hour. After 3 washes in PBS, 25 μl of 20 nM anti-HIF1α a detection antibody was added and incubated for 1 hour at room temperature on an orbital shaker. After 3 washes in PBS, 150 μl of 1× read buffer was added and the plate was then read on a MSD SECTOR instrument. Data was analyzed by determining the percent of HIF stimulation in the presence of 100 μM compound relative to an assay control compound, 7-[(4-Chloro-phenyl)-(5-methyl-isoxazol-3-ylamino)-methyl]-quinolin-8-ol.

For another assay, the target named is PHD2181-417 (Homo sapiens (Human), UniProt Q9GZT9). The assay can be described thus: PHD enzymatic assay ([14C]-succinic acid production). The class given is biochemical. To be noted: purified PHD2181-417, HIF-1α peptide substrate, 30 min pre-incubation; average of results. An outline of the steps:
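Recombinant human PHD2 (aa 181-417, E. coli-expressed, tags cleaved) with peptide substrate (10 μM) and [5-14C]-2-oxoglutarate in Tris pH 7.5 with catalase, DTT and ascorbate, 10 min reaction after 30 min compound pre-incubation; compounds at 100 μM final, 1% DMSO. [14C]-succinate separated by DNP precipitation and beta-counted; IC50 from three-parameter logistic fit.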

The subject of assay [1] is Erythropoietin secretion, Hep-3B cells. The assay can be described thus: Cellular assay: EPO secretion in Hep-3B cells. To be noted: Homo sapiens, Hep3B, 100 μM compound, 24 hours, percent of EPO secretion relative to assay control compound 7-[(4-Chloro-phenyl)-(5-methyl-isoxazol-3-ylamino)-methyl]-quinolin-8-ol, read-out: Cellular % EPO Stimulation. In kind it is cell-based. An outline of the steps: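 Compounds at 100 μM final were added to Hep-3B cells 24 h after plating and left for 24 h. Secreted EPO in supernatant measured by MSD electrochemiluminescence immunoassay. Reported as percent EPO secretion relative to an 8-hydroxyquinoline reference control compound.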

Sequence of PHD2181-417 (Q9GZT9 181-417): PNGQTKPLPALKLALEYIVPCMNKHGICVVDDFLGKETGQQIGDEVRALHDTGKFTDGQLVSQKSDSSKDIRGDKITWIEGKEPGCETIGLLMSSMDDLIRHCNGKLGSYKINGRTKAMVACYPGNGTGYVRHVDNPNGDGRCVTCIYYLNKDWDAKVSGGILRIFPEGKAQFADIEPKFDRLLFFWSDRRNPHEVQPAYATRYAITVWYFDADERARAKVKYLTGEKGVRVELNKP

`O=C(O)c1cnn(-c2nc(N3CCCCCC3)c3ccc(Oc4ccccc4)cc3n2)c1` [Example 87, 1-(4-(Azepan-1-yl)-7-phenoxyquinazolin-2-yl)-1H-pyrazole-4-carboxylic acid] returned an activation at 100 µM with HIF1-α, Hela cells of 20%.
The same measure, in the same setting: for `CCCN(CCC)c1nc(-n2cc(C(=O)O)cn2)nc2cc(Oc3ccccc3)ccc12` [Example 93, 1-(4-(Dipropylamino)-7-phenoxyquinazolin-2-yl)-1H-pyrazole-4-carboxylic acid] the value was 43%.
For `CN(C)c1nc(-n2cc(C(=O)O)cn2)nc2cc(F)c(OC3CCCCC3)cc12` [Example 101, 1-(7-fluoro-6-(cyclohexyloxy)-4-(dimethylamino)quinazolin-2-yl)-1H-pyrazole-4-carboxylic acid], the “Enzyme pIC50” value at PHD2181-417 was 7.1. In assay [1], the activation at 100 µM is 85%.
For `CCN(CC)c1nc(-n2cc(C(=O)O)cn2)nc2cc(F)c(OC3CCCCC3)cc12` [Example 102, 1-(6-(Cyclohexyloxy)-4-(diethylamino)-7-fluoroquinazolin-2-yl)-1H-pyrazole-4-carboxylic acid], in that order: 7.5 and 37%.
For `O=C(O)c1cnn(-c2nc(N3CCCC3)c3cc(OC4CCCCC4)c(F)cc3n2)c1` [Example 103, 1-(7-fluoro-6-(cyclohexyloxy)-4-(pyrrolidin-1-yl)quinazolin-2-yl)-1H-pyrazole-4-carboxylic acid], in that order: 7.3 and 31%.
For `CCN(C)c1nc(-n2cc(C(=O)O)cn2)nc2cc(F)c(OC3CCCCC3)cc12` [Example 104, 1-(7-fluoro-6-(cyclohexyloxy)-4-(ethyl(methyl)amino)quinazolin-2-yl)-1H-pyrazole-4-carboxylic acid], in that order: 7.1 and 49%.
As to `O=C(O)c1cnn(-c2nc(NC3CC3)c3cc(OC4CCCCC4)c(F)cc3n2)c1` [Example 105, 1-(7-fluoro-6-(cyclohexyloxy)-4-(cyclopropylamino)quinazolin-2-yl)-1H-pyrazole-4-carboxylic acid], on PHD2181-417, the “Enzyme pIC50” value was determined as 7.2. Further, the activation at 100 µM in assay [1] is 29%.
For `O=C(O)c1cnn(-c2nc(N3CCOCC3)c3cc(OC4CCCCC4)c(Cl)cc3n2)c1` [Example 136, 1-(7-chloro-6-(cyclohexyloxy)-4-morpholinoquinazolin-2-yl)-1H-pyrazole-4-carboxylic acid], in that order: 6.7 and 33%.
As for `CN(C)c1nc(-n2cc(C(=O)O)cn2)nc2cc(Cl)c(OC3CCCCC3)cc12` [Example 137, 1-(7-chloro-6-(cyclohexyloxy)-4-(dimethylamino)quinazolin-2-yl)-1H-pyrazole-4-carboxylic acid], the “Enzyme pIC50” value at PHD2181-417 was 7.4. Moreover, the activation at 100 µM in assay [1] is 32%.
As for `CCN(C)c1nc(-n2cc(C(=O)O)cn2)nc2cc(Cl)c(OC3CCCCC3)cc12` [Example 140, 1-(7-chloro-6-(cyclohexyloxy)-4-(ethyl(methyl)amino)quinazolin-2-yl)-1H-pyrazole-4-carboxylic acid], the “Enzyme pIC50” value on PHD2181-417 is 7.2. Also, the activation at 100 µM in assay [1] was found to be 29%.
Turning to `CC(C)c1cc2c(N3CCOCC3)nc(-n3cc(C(=O)O)cn3)nc2cc1Cl` [Example 160, 1-(7-chloro-6-isopropyl-4-morpholinoquinazolin-2-yl)-1H-pyrazole-4-carboxylic acid], the “Enzyme pIC50” value on PHD2181-417 stood at 6.8. Further, the activation at 100 µM in assay [1] was 28%.
The corresponding values for `CC(C)c1cc2c(N(C)C)nc(-n3cc(C(=O)O)cn3)nc2cc1Cl` [Example 161, 1-(7-chloro-4-(dimethylamino)-6-isopropylquinazolin-2-yl)-1H-pyrazole-4-carboxylic acid] are 7.4 and 32%.
For `CCN(CC)c1nc(-n2cc(C(=O)O)cn2)nc2cc(Cl)c(C(C)C)cc12` [Example 162, 1-(7-chloro-4-diethylamino-6-isopropylquinazolin-2-yl)-1H-pyrazole-4-carboxylic acid], in that order: 7.2 and 40%.
For the compound `CC(C)c1cc2c(N3CCCC3)nc(-n3cc(C(=O)O)cn3)nc2cc1Cl` [Example 163, 1-(7-chloro-4-(pyrrolidin-1-yl)-6-isopropylquinazolin-2-yl)-1H-pyrazole-4-carboxylic acid], the “Enzyme pIC50” value at PHD2181-417 is 7.3. For the same compound, the activation at 100 µM in assay [1] was 26%.
Consider `CCN(C)c1nc(-n2cc(C(=O)O)cn2)nc2cc(Cl)c(C(C)C)cc12` [Example 164, 1-(7-chloro-4-(ethyl(methyl)amino)-6-isopropylquinazolin-2-yl)-1H-pyrazole-4-carboxylic acid], for which, at PHD2181-417, the “Enzyme pIC50” value was determined as 7.4. Further, the activation at 100 µM in assay [1] was 57%.
Consider `CC(C)c1cc2c(NC3CC3)nc(-n3cc(C(=O)O)cn3)nc2cc1Cl` [Example 165, 1-(7-chloro-4-(cyclopropylamino)-6-isopropylquinazolin-2-yl)-1H-pyrazole-4-carboxylic acid], for which the “Enzyme pIC50” value at PHD2181-417 is reported as 7.0. In addition, the activation at 100 µM in assay [1] is 24%.
For `O=C(O)c1cnn(-c2nc(N3CCOCC3)c3cc(OC4CCCCC4)ccc3n2)c1` [Example 172, 1-(6-(cyclohexyloxy)-4-morpholinoquinazolin-2-yl)-1H-pyrazole-4-carboxylic acid], in that order: 6.4 and 18%.
For `CN(C)c1nc(-n2cc(C(=O)O)cn2)nc2ccc(OC3CCCCC3)cc12` [Example 173, 1-(6-(cyclohexyloxy)-4-(dimethylamino)quinazolin-2-yl)-1H-pyrazole-4-carboxylic acid], the “Enzyme pIC50” value at PHD2181-417 is 7.4. Also, the activation at 100 µM in assay [1] turned out to be 62%.
For `O=C(O)c1cnn(-c2nc(NC3CC3)c3cc(OC4CCCCC4)ccc3n2)c1` [Example 176, 1-(6-(cyclohexyloxy)-4-(cyclopropylamino)quinazolin-2-yl)-1H-pyrazole-4-carboxylic acid], in that order: 6.8 and 35%.
With `CCN(C)c1nc(-n2cc(C(=O)O)cn2)nc2ccc(OC3CCCCC3)cc12` [Example 177, 1-(6-(cyclohexyloxy)-4-(ethyl(methyl)amino)quinazolin-2-yl)-1H-pyrazole-4-carboxylic acid], the “Enzyme pIC50” value at PHD2181-417 was 7.3. Besides, the activation at 100 µM in assay [1] was 56%.
For `CC(C)c1ccc2nc(-n3cc(C(=O)O)cn3)nc(N3CCOCC3)c2c1` [Example 184, 1-(4-(morpholino)-6-isopropylquinazolin-2-yl)-1H-pyrazole-4-carboxylic acid], in that order: 5.7 and 24%.
As for `CC(C)c1ccc2nc(-n3cc(C(=O)O)cn3)nc(N(C)C)c2c1` [Example 185, 1-(4-(dimethylamino)-6-isopropylquinazolin-2-yl)-1H-pyrazole-4-carboxylic acid], the “Enzyme pIC50” value at PHD2181-417 came to 7.0. In addition, in assay [1], the activation at 100 µM is 62%.
For `CCN(CC)c1nc(-n2cc(C(=O)O)cn2)nc2ccc(C(C)C)cc12` [Example 186, 1-(4-(diethylamino)-6-isopropylquinazolin-2-yl)-1H-pyrazole-4-carboxylic acid], in that order: 7.0 and 43%.
Consider `CC(C)c1ccc2nc(-n3cc(C(=O)O)cn3)nc(N3CCCC3)c2c1` [Example 187, 1-(6-isopropyl-4-(pyrrolidin-1-yl)quinazolin-2-yl)-1H-pyrazole-4-carboxylic acid], for which the “Enzyme pIC50” value at PHD2181-417 amounted to 6.8. The activation at 100 µM in assay [1] was determined as 28%.
For `CC(C)c1ccc2nc(-n3cc(C(=O)O)cn3)nc(NC3CC3)c2c1` [Example 188, 1-(4-(cyclopropylamino)-6-isopropylquinazolin-2-yl)-1H-pyrazole-4-carboxylic acid], in that order: 6.0 and 35%.
In the case of `CCN(C)c1nc(-n2cc(C(=O)O)cn2)nc2ccc(C(C)C)cc12` [Example 189, 1-(6-isopropyl-4-(ethyl(methyl)amino)quinazolin-2-yl)-1H-pyrazole-4-carboxylic acid], the “Enzyme pIC50” value at PHD2181-417 stood at 6.8. In addition, the activation at 100 µM in assay [1] amounted to 36%.
